target: T1, chimeric human H3 receptor (Homo sapiens, UniProt Q9Y5N1, E19D); experiment: Chimeric human H3 receptor screening GTP binding assay (inhibition of histamine-stimulated GTP-gamma35S binding, Example 8); format: biochemical; details: 1 h; "+" in Ki of Table II; assay of Example 8; read-out: percent inhibition of agonist-induced GTP-gammaS binding to H3
T1 construct: made in house; host or cells: Sf9 insect cells (baculovirus infection); P2 membrane preparation
Summary of the method: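 Data are percent inhibition of the 1 μM histamine-stimulated GTP-gamma35S (125 pM) binding, after non-specific binding (10 uM GTP-gammaS) is subtracted. Test compound at 4 μM. Incubation was 60 min at room temperature with Sf9 membranes bearing receptor plus G-protein subunits, buffer pH 7.4 with 10 μM GDP, and filtration read-out.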

T1 sequence (Q9Y5N1 with tags, fused parts or gaps E19D): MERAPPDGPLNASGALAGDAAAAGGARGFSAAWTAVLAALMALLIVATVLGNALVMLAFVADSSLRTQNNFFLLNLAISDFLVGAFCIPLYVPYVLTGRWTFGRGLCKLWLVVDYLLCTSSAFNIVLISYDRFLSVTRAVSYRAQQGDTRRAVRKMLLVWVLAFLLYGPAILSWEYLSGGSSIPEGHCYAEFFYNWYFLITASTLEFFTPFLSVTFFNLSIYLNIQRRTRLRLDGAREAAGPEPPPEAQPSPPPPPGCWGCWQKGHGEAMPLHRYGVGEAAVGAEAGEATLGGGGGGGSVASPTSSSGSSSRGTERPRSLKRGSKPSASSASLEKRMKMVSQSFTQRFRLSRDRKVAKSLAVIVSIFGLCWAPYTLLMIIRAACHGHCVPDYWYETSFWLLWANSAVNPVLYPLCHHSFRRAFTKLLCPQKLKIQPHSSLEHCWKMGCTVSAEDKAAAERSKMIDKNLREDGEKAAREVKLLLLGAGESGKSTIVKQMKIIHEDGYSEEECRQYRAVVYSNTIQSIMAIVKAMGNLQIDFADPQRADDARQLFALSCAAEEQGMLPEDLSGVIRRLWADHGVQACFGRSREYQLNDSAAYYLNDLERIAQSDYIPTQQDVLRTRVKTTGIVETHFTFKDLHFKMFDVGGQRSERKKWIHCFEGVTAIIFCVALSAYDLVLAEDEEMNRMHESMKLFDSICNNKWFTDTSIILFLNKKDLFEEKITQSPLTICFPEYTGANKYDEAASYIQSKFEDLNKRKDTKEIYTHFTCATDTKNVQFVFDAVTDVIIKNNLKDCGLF

SMILES | inhibition at 4 µM [%]
Cc1ccc(C)c(OCC(=O)N2CCN(CC(=O)N3CCN(C4CCC4)CC3)CC2)c1 [Compound 510, 1-cyclobutyl-4-({4-[(2,5-dimethylphenoxy)acetyl]piperazin-1-yl}acetyl)piperazine] | > 90
Cc1cccc(OCC(=O)N2CCN(CC(=O)N3CCN(C4CCC4)CC3)CC2)c1 [Compound 554, 1-cyclobutyl-4-({4-[(3-methylphenoxy)acetyl]piperazin-1-yl}acetyl)piperazine] | > 90
O=C(Cc1ccc(F)cc1)N1CCN(CC(=O)N2CCN(C3CCC3)CC2)CC1 [Compound 559, 1-cyclobutyl-4-({4-[(4-fluorophenyl)acetyl]piperazin-1-yl}acetyl)piperazine] | > 90
O=C(COc1ccc(F)cc1)N1CCN(CC(=O)N2CCN(C3CCC3)CC2)CC1 [Compound 558, 1-cyclobutyl-4-({4-[(4-fluorophenoxy)acetyl]piperazin-1-yl}acetyl)piperazine] | > 90

same assay, conditions: 1 h; Table II, "+" in the column headed Ki; assay of Example 8; read-out: percent inhibition of agonist-induced GTP-gammaS binding to H3

SMILES | inhibition at 4 µM [%]
CCCOc1ccccc1C(=O)N1CCN(CC(=O)N2CCN(C3CCC3)CC2)CC1 [Compound 722, 1-cyclobutyl-4-{[4-(2-propoxybenzoyl)piperazin-1-yl]acetyl}piperazine] | > 90
COc1c(Cl)cc(Cl)c(OC)c1C(=O)N1CCN(CC(=O)N2CCN(C3CCC3)CC2)CC1 [Compound 737, 1-cyclobutyl-4-{[4-(3,5-dichloro-2,6-dimethoxybenzoyl)piperazin-1-yl]acetyl}piperazine] | > 90

Now from value to compound:

inhibition at 4 µM [%] | SMILES
> 90 | Cc1nc(-c2ccc(C(F)(F)F)cc2)sc1C(=O)N1CCN(CC(=O)N2CCN(C3CCC3)CC2)CC1 [Compound 660, 1-cyclobutyl-4-{[4-({4-methyl-2-[4-(trifluoromethyl)phenyl]-1,3-thiazol-5-yl}carbonyl)piperazin-1-yl]acetyl}piperazine]
> 90 | O=C(CN1CCN(C(=O)c2ccc(Cl)c(Cl)c2)CC1)N1CCN(C2CCC2)CC1 [Compound 726, 1-cyclobutyl-4-{[4-(3,4-dichlorobenzoyl)piperazin-1-yl]acetyl}piperazine]

same assay, conditions: 1 h; assay described in Example 8; symbol + in column headed Ki of Table II; read-out: percent inhibition of agonist-induced GTP-gammaS binding to H3

inhibition at 4 µM [%] | SMILES
> 90 | O=C(CN1CCN(C(=O)c2ccnc(Cl)c2)CC1)N1CCN(C2CCC2)CC1 [Compound 279, 1-(2-chloroisonicotinoyl)-4-[2-(4-cyclobutylpiperazin-1-yl)-2-oxoethyl]piperazine]

— patent US7851474B2, “Dipiperazinyl ketones and related analogues” (Neurogen Corporation, priority 2005, dated 2010)
